Reference: PubChem BioAssay AID1963846 (Molecular Pharmacology Branch, DTP, NCI, 2024)

Test system: 454973-116-R2-J3-PDC complex spheroid viability
Assay: Anticancer human tumor 454973-116-R2-J3-PDC patient-derived pancreatic carcinoma cell line growth inhibition [POLQ]
Conditions: for IC50: curve of first compound; for viability, T/C: stronger effect = lower value
Procedure: Multicellular complex tumor spheroid response to Polymerase (POL) inhibitors (novobiocin, ART-558, RP6685) in combination with a variety of drugs and investigational agents in selected tumor cell lines
The POL inhibitors (novobiocin, ART-558, and RP6685) were evaluated both individually and in combination with standard of care and investigational anticancer small molecules within a complex spheroid model of solid tumors. . Complex spheroids include a stromal component modeled by human endothelial cells (HUVEC) and fibroblasts modeled by human mesenchymal stem cells (MSCs). The concentration ranges selected for each drug and investigational agent were based upon clinically achievable concentrations if the clinical Cmax of the agent was known.
Compounds. The drugs and investigational agents: novobiocin (NSC847541), ART-558 (NSC835418), RP-6685 (NSC848927), peposertib (NSC802822), ceralasertib (NSC780249), elimusertib (NSC800525), camonsertib (NSC841442), AZD-1390 (NSC803789), olaparib (NSC753686), talazoparib (NSC767125), rucaparib (NSC756644), sotorasib (NSC818433), MRTX-1133 (NSC836407), SN-38 (NSC673596), topotecan (NSC609699), epotoside (NSC141540), doxorubicin (NSC123127), gemcitabine (NSC613327), 5-fluorouracil (NSC19893), paclitaxel (NSC125973), vemurafenib (NSC761431), MSA-2 (NSC828583), SN-011 (NSC837082), adavosertib (NSC754352), prexasertib (NSC758257), carboplatin (NSC241240) and oxaliplatin (NSC266046), were obtained from the National Cancer Institute (NCI) Developmental Therapeutics Program Chemical Repository (21). The FDA-approved anticancer drug set is available from the Developmental Therapeutics Program at https://dtp.cancer.gov/organization/dscb/obtaining/. […] The stock solutions were prepared in dimethyl sulfoxide (DMSO, Sigma-Aldrich, St. Louis, MO, cat. D2650), except for the platinum compounds which were prepared in saline (Quality Biological, Gaithersburg, MD, cat. 114-055-101), at 800-fold the tested concentration and stored at -70 degrees C prior to their use. All drugs and investigational agents were tested over a range starting from a high concentration at or near the clinical Cmax and decreasing in half-log increments. If the clinical Cmax for an agent had not been determined, the highest concentration tested was 10 microM, except for SN-38, which was tested at a high concentration of 1 microM.
Cell Culture. All cells were maintained in an incubator at 37 degrees C and 5% CO2 with 95% humidity. The PDC lines were cultured according to standard operating procedures established by the NCI PDMR (https://pdmr.cancer.gov). Table 3 of the manuscript, lists the cell lines along with the number of the three cell types plated to form the mct-spheroids and media for tumor cell growth. After thawing, all PDC lines, except 997537-175-T-J1-PDC and 415267-285-R-J2-PDC, were cultured in Matrigel-coated flasks prepared with a working solution of 1X Ham's F-12 nutrient mix, without supplementation (Thermo Fisher Scientific, cat. 11765054), 100 U/mL penicillin-streptomycin (Thermo Fisher Scientific, cat. 15140122), and 2.5% Matrigel (Corning Inc., Corning, NY, cat. 354248) for the first three passages. The two PDC lines 997537-175-T-J1-PDC and 415267-285-R-J2-PDC were cultured on uncoated flasks. The 857933-349-R-J2-PDC line was cultured in 6C/Colon 1B media containing advanced DMEM/F-12 (Thermo Fisher Scientific, cat. 12634028), 10 mM HEPES (Thermo Fisher Scientific, cat. 15630080), 1X GlutaMAX supplement (Thermo Fisher Scientific, cat. 35050061), 0.1 mg/mL primocin (InvivoGen, San Diego, CA, cat. ant-pm-2), 10% defined fetal bovine serum, heat inactivated (HyClone Laboratories Inc., Logan, UT, cat. SH30070.03HI), 50% L-WRN conditioned media (ATCC, cat. CRL-3276), 1.25 mM N-Acetyl-L-cysteine (Sigma-Aldrich, cat. A9165), 10 mM nicotinamide (Sigma-Aldrich, cat. N0636), 1X B-27 supplement (Thermo Fisher Scientific, cat. 17504044), 1X N-2 supplement (Thermo Fisher Scientific, cat. […]

[1] = second compound 0.0316 µM, first compound 0.0316 µM
[2] = second compound 0.0316 µM, first compound 0.1 µM
[3] = second compound 0.0316 µM, first compound 0.316 µM
[4] = second compound 0.0316 µM, first compound 1 µM
[5] = second compound 0.0316 µM, first compound 3.16 µM
[6] = second compound 0.0316 µM, first compound 10 µM
[7] = second compound 0.1 µM, first compound 0.0316 µM
[8] = second compound 0.1 µM, first compound 0.1 µM
[9] = second compound 0.1 µM, first compound 0.316 µM
[10] = second compound 0.1 µM, first compound 1 µM
[11] = second compound 0.1 µM, first compound 3.16 µM
[12] = second compound 0.1 µM, first compound 10 µM
[13] = second compound 0.316 µM, first compound 0.0316 µM
[14] = second compound 0.316 µM, first compound 0.1 µM
[15] = second compound 0.316 µM, first compound 0.316 µM
[16] = second compound 0.316 µM, first compound 1 µM
[17] = second compound 0.316 µM, first compound 3.16 µM
[18] = second compound 0.316 µM, first compound 10 µM
[19] = second compound 1 µM, first compound 0.0316 µM
[20] = second compound 1 µM, first compound 0.1 µM
[21] = second compound 1 µM, first compound 0.316 µM
[22] = second compound 1 µM, first compound 1 µM
[23] = second compound 1 µM, first compound 3.16 µM
[24] = second compound 1 µM, first compound 10 µM
[25] = second compound 3.16 µM, first compound 0.0316 µM
[26] = second compound 3.16 µM, first compound 0.1 µM
[27] = second compound 3.16 µM, first compound 0.316 µM
[28] = second compound 3.16 µM, first compound 1 µM
[29] = second compound 3.16 µM, first compound 3.16 µM
[30] = second compound 3.16 µM, first compound 10 µM
[31] = second compound 10 µM, first compound 0.0316 µM
[32] = second compound 10 µM, first compound 0.1 µM
[33] = second compound 10 µM, first compound 0.316 µM
[34] = second compound 10 µM, first compound 1 µM
[35] = second compound 10 µM, first compound 3.16 µM
[36] = second compound 10 µM, first compound 10 µM
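Further: spheroids exposed to drugs for seven days before measurement.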
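Wherever viability, T/C is given: percent viability relative to DMSO vehicle control wells taken as 100%.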

Structure (SMILES): C=CC(=O)N1CCN(c2nc(=O)n(-c3c(C)ccnc3C(C)C)c3nc(-c4c(O)cccc4F)c(F)cc23)C(C)C1 (centres undefined) + COC1C(OC(N)=O)C(O)C(Oc2ccc3c(O)c(NC(=O)c4ccc(O)c(CC=C(C)C)c4)c(=O)oc3c2C)OC1(C)C
- IC50 (second compound 0.0316 µM): > 10 µM
- IC50 (second compound 0.1 µM): > 10 µM
- IC50 (second compound 0.316 µM): > 10 µM
- IC50 (second compound 1 µM): > 10 µM
- IC50 (second compound 3.16 µM): > 10 µM
- IC50 (second compound 10 µM): > 10 µM
- viability, T/C [1]: 108%
- viability, T/C [2]: 106%
- viability, T/C [3]: 97.8%
- viability, T/C [4]: 111%
- viability, T/C [5]: 114%
- viability, T/C [6]: 106%
- viability, T/C [7]: 108%
- viability, T/C [8]: 110%
- viability, T/C [9]: 105%
- viability, T/C [10]: 113%
- viability, T/C [11]: 111%
- viability, T/C [12]: 108%
- viability, T/C [13]: 102%
- viability, T/C [14]: 107%
- viability, T/C [15]: 103%
- viability, T/C [16]: 113%
- viability, T/C [17]: 113%
- viability, T/C [18]: 108%
- viability, T/C [19]: 113%
- viability, T/C [20]: 108%
- viability, T/C [21]: 105%
- viability, T/C [22]: 114%
- viability, T/C [23]: 104%
- viability, T/C [24]: 103%
- viability, T/C [25]: 110%
- viability, T/C [26]: 101%
- viability, T/C [27]: 105%
- viability, T/C [28]: 97.9%
- viability, T/C [29]: 111%
- viability, T/C [30]: 102%
- viability, T/C [31]: 101%
- viability, T/C [32]: 104%
- viability, T/C [33]: 99.8%
- viability, T/C [34]: 105%
- viability, T/C [35]: 110%
- viability, T/C [36]: 103%

Structure (SMILES): CCc1cc2c(N3CCc4c(cc(Cn5ccnc5)cc4-c4cn(C)nc4C(F)(F)F)C3=O)ccnc2c(OC)n1 + COC1C(OC(N)=O)C(O)C(Oc2ccc3c(O)c(NC(=O)c4ccc(O)c(CC=C(C)C)c4)c(=O)oc3c2C)OC1(C)C
- IC50 (second compound 0.0316 µM): > 10 µM
- IC50 (second compound 0.1 µM): > 10 µM
- IC50 (second compound 0.316 µM): > 10 µM
- IC50 (second compound 1 µM): > 10 µM
- IC50 (second compound 3.16 µM): > 10 µM
- IC50 (second compound 10 µM): > 10 µM
- viability, T/C [1]: 109%
- viability, T/C [2]: 107%
- viability, T/C [3]: 96.7%
- viability, T/C [4]: 86.4%
- viability, T/C [5]: 90.8%
- viability, T/C [6]: 72.8%
- viability, T/C [7]: 101%
- viability, T/C [8]: 96%
- viability, T/C [9]: 96.8%
- viability, T/C [10]: 96.8%
- viability, T/C [11]: 91.5%
- viability, T/C [12]: 81.5%
- viability, T/C [13]: 99.8%
- viability, T/C [14]: 104%
- viability, T/C [15]: 96.5%
- viability, T/C [16]: 96.4%
- viability, T/C [17]: 88.8%
- viability, T/C [18]: 82.1%
- viability, T/C [19]: 112%
- viability, T/C [20]: 104%
- viability, T/C [21]: 99%
- viability, T/C [22]: 93.7%
- viability, T/C [23]: 85.8%
- viability, T/C [24]: 76.6%
- viability, T/C [25]: 107%
- viability, T/C [26]: 102%
- viability, T/C [27]: 97.8%
- viability, T/C [28]: 86.8%
- viability, T/C [29]: 82.4%
- viability, T/C [30]: 72.2%
- viability, T/C [31]: 113%
- viability, T/C [32]: 99%
- viability, T/C [33]: 96%
- viability, T/C [34]: 86.5%
- viability, T/C [35]: 84%
- viability, T/C [36]: 72.9%
